Reference: patent publication US20260209253A1, “SILVER ION COMPLEX GEMINI QUATERNARY AMMONIUM SALT: PREPARATION METHOD AND APPLICATIONS” (ANHUI KIWI BIOTECH CO., LTD, priority 2023, published 2026)

System: Escherichia coli
Assay: suspension quantitative bactericidal test (2.1.1.7.4, Disinfection Technical Specifications 2002 edition), 30 min
Assay type: cell-based
Conditions: for antibacterial performance (in words): Table 3, 0.0015625% and 0.00078125% aqueous solutions
Experimental: (§1) Referring to 2.1.1.7.4 suspension quantitative bactericidal test (2002 edition of Disinfection Technical Specifications), neutralizer was prepared: 2.1% lecithin+2.0% glucose+0.5% sodium thiosulfate+1.5% tween-80+0.5% peptone+1.2% sodium sulfite aqueous solution. C6-S—Cl (Example 1), C8-S—Cl (Example 3) and C10-S—Cl (Example 5) were diluted into 0.0015625% and 0.00078125% aqueous solutions, and the bactericidal experiment was carried out for 30 min to Escherichia coli.
as §1, with “solution.” for “solution. C6-S—Cl (Example 1),”, “3), C8-S—Br (Example 4)” for “3)”, “C8-S—NO3” for “C10-S—Cl”, “7)” for “5)”
Referring to 2.1.1.7.4 suspension quantitative bactericidal test (2002 edition of Disinfection Technical Specifications), neutralizer was prepared: 2.1% lecithin+2.0% glucose+0.5% sodium thiosulfate+1.5% tween-80+0.5% peptone+1.2% sodium sulfite aqueous solution. C8-S—Cl (Example 3), C8-S—NO3—Ag^+ (Example 3), C8-S—CI—Cu^2+ (ratio 1), C8-S—CI—Mn^2+ (ratio 2), C8-S—CI—Fe^3+ (ratio 3), AgNO3, CuCl2, MnCl2, and FeCl3 were dissolved to 0.0015625% and 0.00078125% aqueous solution.
Referring to 2.1.1.7.4 suspension quantitative bactericidal test (2002 edition of Disinfection Technical Specifications), neutralizer was prepared: 2.1% lecithin+2.0% glucose+0.5% sodium thiosulfate+1.5% tween-80+0.5% peptone+1.2% sodium sulfite aqueous solution. C8-S—Cl (Example 3), C8-S—NO3 (Example 7) and C8-S—NO3—Ag^+ (Example 3) were configured into 0.0015625%, 0.00078125% and 0.000390625% aqueous solutions.
Referring to 2.1.1.7.4 suspension quantitative bactericidal test (2002 edition of Disinfection Technical Specifications), neutralizer was prepared: 2.1% lecithin+2.0% glucose+0.5% sodium thiosulfate+1.5% tween-80+0.5% peptone+1.2% sodium sulfite aqueous solution. The bactericidal experiment was carried out on E. coli for 30 min by preparing the silver-ion complex Gemini quaternary ammonium salt (Example 3), C10 chlorinated sulfur-free Gemini quaternary ammonium salt (Comparative example 4) and uncomplex silver-ion Gemini quaternary ammonium salt (Comparative example 4) into 0.0015625%, 0.00078125% and 0.000390625% aqueous solutions.

[1] = Table 5, 0.000390625% aqueous solution, E. coli
[2] = Table 5, 0.00078125% aqueous solution, E. coli
[3] = Table 5, 0.0015625% aqueous solution, E. coli
[4] = Table 3, 0.00078125% aqueous solution, Escherichia coli
[5] = Table 3, 0.0015625% aqueous solution, Escherichia coli
[6] = Table 1, 0.00078125% aqueous solution, Escherichia coli
[7] = Table 1, 0.0015625% aqueous solution, Escherichia coli
[8] = Table 2, 0.00078125% aqueous solution, Escherichia coli
[9] = Table 2, 0.0015625% aqueous solution, Escherichia coli
[10] = Table 4, 0.000390625% aqueous solution, Escherichia coli
[11] = Table 4, 0.00078125% aqueous solution, Escherichia coli
[12] = Table 4, 0.0015625% aqueous solution, Escherichia coli

Compound | Treated (cfu/mL) [4] | sterilizing rate [4] | antibacterial performance (in words) (Escherichia coli) | Treated (cfu/mL) [5] | sterilizing rate [5] | Treated (cfu/mL) [6] | sterilizing rate [6] [%] | Treated (cfu/mL) [7] | sterilizing rate [7] [%] | Treated (cfu/mL) [8] | sterilizing rate [8] [%] | Treated (cfu/mL) [9] [cfu/mL] | sterilizing rate [9] [%] | other results
CCCCCCCCCC(=O)OCC[N+](C)(C)CCC[N+](C)(C)CCOC(=O)CCCCCCCCC [Example C10-Cl, reference compound] | – | – | – | – | – | – | – | – | – | – | – | – | – | Treated (cfu/mL) [1]: 4.3 × 10^5 cfu/mL; sterilizing rate [1]: 99.978%; Treated (cfu/mL) [2]: 3.5 × 10^3 cfu/mL; sterilizing rate [2]: >99.99%; Treated (cfu/mL) [3]: 1.2 × 10^2 cfu/mL; sterilizing rate [3]: >99.999%
[Cl][Fe]([Cl])[Cl] [FeCl3, reference compound] | 6.2 × 10^8 cfu/mL | No bactericidal effect | did not show any antibacterial performance | 4.3 × 10^7 cfu/mL | No bactericidal effect | – | – | – | – | – | – | – | – | –
[Cl][Cu][Cl] [CuCl2, reference compound] | 4.9 × 10^8 cfu/mL | No bactericidal effect | did not show any antibacterial performance | 3.2 × 10^7 cfu/mL | No bactericidal effect | – | – | – | – | – | – | – | – | –
CCCCCCCCSCCC(=O)OCC[N+](C)(C)CCC[N+](C)(C)CCOC(=O)CCSCCCCCCCC [Example C8-S-Cl] | 1.8 × 10^3 cfu/mL | >99.99% | – | 86 cfu/mL | >99.999% | 1.9 × 10^2 cfu/mL | >99.99 | 90 cfu/mL | >99.999 | 1.7 × 10^3 cfu/mL | >99.99 | 79 | >99.999 | bactericidal rate (Table 1, 0.0015625% and 0.00078125% aqueous solutions, Escherichia coli): above 99.99%; Treated (cfu/mL) [1]: 2.6 × 10^5 cfu/mL; sterilizing rate [1]: 99.985%; Treated (cfu/mL) [2]: 1.8 × 10^3 cfu/mL; sterilizing rate [2]: >99.99%; Treated (cfu/mL) [3]: 82 cfu/mL; sterilizing rate [3]: >99.999%
CCCCCCCCSCCC(=O)OCC[N+](C)(C)CCC[N+](C)(C)CCOC(=O)CCSCCCCCCCC [Example C8-S-NO3] | – | – | – | – | – | – | – | – | – | 1.4 × 10^2 cfu/mL | >99.999 | 13 | >99.999 | bactericidal rate (Table 2, 0.0015625% and 0.00078125% aqueous solutions, Escherichia coli): above 99.999%; Treated (cfu/mL) [10]: 4.5 × 10^4 cfu/mL; sterilizing rate [10]: >99.99%; Treated (cfu/mL) [11]: 2.5 × 10^2 cfu/mL; sterilizing rate [11]: >99.99%; Treated (cfu/mL) [12]: 13 cfu/mL; sterilizing rate [12]: >99.999%
CCCCCCCCCCSCCC(=O)OCC[N+](C)(C)CCC[N+](C)(C)CCOC(=O)CCSCCCCCCCCCC [Example C10-S-Cl] | – | – | – | – | – | 4.6 × 10^4 cfu/mL | 99.841 | 5.8 × 10^2 cfu/mL | >99.99 | – | – | – | – | –
[Cl][Mn][Cl] [MnCl2, reference compound] | 8.9 × 10^7 cfu/mL | No bactericidal effect | did not show any antibacterial performance | 2.3 × 10^7 cfu/mL | No bactericidal effect | – | – | – | – | – | – | – | – | –
CCCCCCCCSCCC(=O)OCC[N+](C)(C)CCC[N+](C)(C)CCOC(=O)CCSCCCCCCCC [Example C8-S-Br] | – | – | – | – | – | – | – | – | – | 1.1 × 10^3 cfu/mL | >99.99 | 75 | >99.999 | –
CCCCCCSCCC(=O)OCC[N+](C)(C)CCC[N+](C)(C)CCOC(=O)CCSCCCCCC [Example C6-S-Cl] | – | – | – | – | – | 4.0 × 10^5 cfu/mL | 98.621 | 3.2 × 10^3 cfu/mL | 99.989 | – | – | – | – | –
O=[N+]([O-])[O-].[Ag+] [AgNO3, reference compound] | 1.3 × 10^8 cfu/mL | No bactericidal effect | did not show any antibacterial performance | 2.2 × 10^7 cfu/mL | No bactericidal effect | – | – | – | – | – | – | – | – | –
